Measured values as given in patent publication US12052991B2, “Substituted pyridinyloxybenzenes and salts thereof and use thereof as herbicidal agents” (Bayer Aktiengesellschaft, priority 2018, dated 2024).

What was measured:
Format in all cases: in vivo
[1] = tested on: harmful plants ABUTH, AMARE, ECHCG, LOLRI, MATIN, POAAN, SETVI, STEME, ALOMY, DIGSA, KCHSC and VERPE; experiment: Herbicidal pre-emergence action (test C), summary of Tables C1-C12; details: application rate of 1280 or 320 g of active ingredient per hectare; summary in words
Text: Seeds of mono- and dicotyledonous weed plants were placed in plastic pots in sandy loam soil (doubly sown with one species each of mono- or dicotyledonous weed plants per pot) and covered with soil. The compounds of the invention, formulated in the form of wettable powders (WP) or as emulsion concentrates (EC), were then applied onto the surface of the covering soil as aqueous suspension or emulsion with addition of 0.5% additive at a water application rate of 600 liters per hectare (converted). After the treatment, the pots were placed in a greenhouse and kept under good growth conditions for the test plants. After about 3 weeks, the effect of the preparations was scored visually in comparison with untreated controls as percentages.
(§1) For example, 100% activity=the plants have died, 0% activity=like control plants.
Tables C1 to C12 below show the effects of selected compounds of the general formula (I) according to Table 1 on various harmful plants and an application rate corresponding to 1280 or 320 g/ha, which were obtained by the experimental procedure mentioned above.
As the results of Tables C1-C12 show, compounds no.

[2] = tested on: Abutilon theophrasti (ABUTH); experiment: Herbicidal post-emergence action (Table B5); details: rated visually after about 3 weeks, 100% = plants have died, 0% = like control plants
Experimental: (§2) Seeds of mono- and dicotyledonous weed plants were placed in plastic pots in sandy loam soil (doubly sown with in each case one species of mono- or dicotyledonous weed plants per pot), covered with soil and cultivated in a greenhouse under controlled growth conditions. 2 to 3 weeks after sowing, the test plants were treated at the one-leaf stage. The compounds of the invention, formulated in the form of wettable powders (WP) or as emulsion concentrates (EC), were applied onto the green parts of the plants as aqueous suspension or emulsion with addition of 0.5% additive at a water application rate of 600 liters per hectare (converted). After the test plants had been kept in the greenhouse under optimum growth conditions for about 3 weeks, the activity of the preparations was rated visually in comparison to untreated controls. For example, 100% activity=the plants have died, 0% activity=like control plants. Tables B1 to B12 below show the effects of selected compounds of the general formula (I) according to Table 1 on various harmful plants and an application rate corresponding to 1280 or 320 g/ha, which were obtained by the experimental procedure mentioned above.

[3] = tested on: Matricaria inodora (MATIN); experiment: Herbicidal pre-emergence action, test C (Table C7); details: dosage 1280 g/ha; visual scoring after about 3 weeks; 100% = plants have died, 0% = like control plants
Text: (§3) Seeds of mono- and dicotyledonous weed plants were placed in plastic pots in sandy loam soil (doubly sown with one species each of mono- or dicotyledonous weed plants per pot) and covered with soil. The compounds of the invention, formulated in the form of wettable powders (WP) or as emulsion concentrates (EC), were then applied onto the surface of the covering soil as aqueous suspension or emulsion with addition of 0.5% additive at a water application rate of 600 liters per hectare (converted). After the treatment, the pots were placed in a greenhouse and kept under good growth conditions for the test plants. After about 3 weeks, the effect of the preparations was scored visually in comparison with untreated controls as percentages. For example, 100% activity=the plants have died, 0% activity=like control plants. Tables C1 to C12 below show the effects of selected compounds of the general formula (I) according to Table 1 on various harmful plants and an application rate corresponding to 1280 or 320 g/ha, which were obtained by the experimental procedure mentioned above.

Stellaria media (STEME) [4] = experiment: Herbicidal post-emergence action (Table B8); details: visual rating about 3 weeks after treatment, 100% = plants have died, 0% = like control plants
Experimental: as §2

Veronica persica (VERPE) [5] = experiment: Herbicidal pre-emergence action, test C (Table C12); details: dosage 1280 g/ha, visual scoring vs untreated controls
Text: as §3

Poa annua (POAAN) [6] = experiment: Herbicidal pre-emergence action, test C (Table C3); details: visual scoring after about 3 weeks, 100% = plants have died, 0% = like control plants
Text: as §3

[7] = tested on: harmful plants ABUTH, AMARE, ECHCG, LOLRI, MATIN, POAAN, SETVI, STEME, ALOMY, DIGSA, KCHSC and VERPE; experiment: Herbicidal post-emergence action, summary of Tables B1-B12; details: application rate of 1280 or 320 g of active ingredient per hectare; summary in words
Experimental: as §2, with “controls.” for “controls. For example, 100% activity=the plants have died, 0% activity=like control plants. Tables B1 to B12 below show the effects of selected compounds of the general formula (I) according to Table 1 on various harmful plants and an application rate corresponding to 1280 or 320 g/ha, which were obtained by the experimental procedure mentioned above.”
as §1
Tables B1 to B12 below show the effects of selected compounds of the general formula (I) according to Table 1 on various harmful plants and an application rate corresponding to 1280 or 320 g/ha, which were obtained by the experimental procedure mentioned above.
As the results of Tables B1-B12 show, compounds no.

[8] = tested on: Abutilon theophrasti (ABUTH); experiment: Herbicidal pre-emergence action, test C (Table C5); details: dosage 1280 g/ha; visual scoring after about 3 weeks; 100% = plants have died, 0% = like control plants
Text: as §3

[9] = tested on: Amaranthus retroflexus (AMARE); experiment: Herbicidal pre-emergence action, test C (Table C6); details: visual scoring after about 3 weeks, 100% = plants have died, 0% = like control plants
Text: as §3

Setaria viridis (SETVI) = experiment: Herbicidal pre-emergence action, test C (Table C4); details: visual scoring after about 3 weeks, 100% = plants have died, 0% = like control plants
Text: as §3

Stellaria media (STEME) [10] = experiment: Herbicidal pre-emergence action, test C (Table C8); details: visual scoring after about 3 weeks, 100% = plants have died, 0% = like control plants
Text: as §3

[11] = tested on: Digitaria sanguinalis (DIGSA); experiment: Herbicidal post-emergence action (Table B10); details: dosage 1280 g/ha; visual rating about 3 weeks after treatment; 100% = plants have died, 0% = like control plants
Experimental: as §2

Veronica persica (VERPE) [12] = experiment: Herbicidal post-emergence action (Table B12); details: visual rating about 3 weeks after treatment, 100% = plants have died, 0% = like control plants
Experimental: as §2

Bassia scoparia (KCHSC) = experiment: Herbicidal post-emergence action (Table B11); details: dosage 1280 g/ha; visual rating about 3 weeks after treatment; 100% = plants have died, 0% = like control plants
Experimental: as §2

[13] = tested on: Digitaria sanguinalis (DIGSA); experiment: Herbicidal pre-emergence action, test C (Table C10); details: dosage 1280 g/ha; visual scoring after about 3 weeks; 100% = plants have died, 0% = like control plants
Text: as §3

Poa annua (POAAN) [14] = experiment: Herbicidal post-emergence action (Table B3); details: rated visually after about 3 weeks, 100% = plants have died, 0% = like control plants
Experimental: as §2

[15] = tested on: Amaranthus retroflexus (AMARE); experiment: Herbicidal post-emergence action (Table B6); details: visual rating about 3 weeks after treatment, 100% = plants have died, 0% = like control plants
Experimental: as §2

[16] = tested on: Echinochloa crus-galli (ECHCG); experiment: Herbicidal post-emergence action (Table B1); details: 1280 g/ha; rated visually after about 3 weeks; 100% = plants have died, 0% = like control plants
Experimental: as §2

[17] = tested on: Alopecurus myosuroides (ALOMY); experiment: Herbicidal post-emergence action (Table B9); details: 1280 g/ha; rated visually after about 3 weeks; 100% = plants have died, 0% = like control plants
Experimental: as §2

Row | Structure (SMILES) | herbicidal activity against the harmful plants of Tables C1-C12 in pre-emergence treatment [1] | Post-emergence action against Abutilon theophrasti (ABUTH) ([2]; 1280 g/ha) | Pre-emergence action against Matricaria inodora (MATIN) [3] | Post-emergence action against Stellaria media (STEME) (Stellaria media (STEME) [4]; dosage 1280 g/ha) | Pre-emergence action against Veronica persica (VERPE) (Veronica persica (VERPE) [5]) | Pre-emergence action against Poa annua (POAAN) (Poa annua (POAAN) [6]; dosage 1280 g/ha) | herbicidal activity against the harmful plants of Tables B1-B12 in post-emergence treatment [7] | Pre-emergence action against Amaranthus retroflexus (AMARE) ([9]; dosage 320 g/ha) | Pre-emergence action against Amaranthus retroflexus (AMARE) ([9]; dosage 1280 g/ha) | Pre-emergence action against Setaria viridis (SETVI) (Setaria viridis (SETVI); dosage 1280 g/ha) | Pre-emergence action against Stellaria media (STEME) (Stellaria media (STEME) [10]; dosage 320 g/ha) | Pre-emergence action against Stellaria media (STEME) (Stellaria media (STEME) [10]; dosage 1280 g/ha) | Post-emergence action against Digitaria sanguinalis (DIGSA) [11] | Post-emergence action against Stellaria media (STEME) (Stellaria media (STEME) [4]; dosage 320 g/ha) | Post-emergence action against Veronica persica (VERPE) (Veronica persica (VERPE) [12]; dosage 320 g/ha) | Post-emergence action against Veronica persica (VERPE) (Veronica persica (VERPE) [12]; dosage 1280 g/ha) | Post-emergence action against Bassia scoparia (KCHSC) (Bassia scoparia (KCHSC)) | Pre-emergence action against Digitaria sanguinalis (DIGSA) [13] | Post-emergence action against Poa annua (POAAN) (Poa annua (POAAN) [14]; 320 g/ha) | Post-emergence action against Amaranthus retroflexus (AMARE) ([15]; dosage 1280 g/ha) | other results
1 | Cc1ccc(-c2cc(C(F)F)no2)c(Oc2ccccn2)c1 [Example 1-25] | very good herbicidal activity | 90% | 90% | 100% | 90% | 90% | very good herbicidal activity | 100% | 100% | 100% | 90% | 100% | 100% |  |  |  |  |  |  |  | Pre-emergence action against Abutilon theophrasti (ABUTH) [8]: 100%; Pre-emergence action against Setaria viridis (SETVI) (Setaria viridis (SETVI); dosage 320 g/ha): 100%
2 | Cc1ccc(-c2cc(C(F)F)no2)c(Oc2ncc(Cl)cc2F)c1 [Example 1-27] | very good herbicidal activity | 90% |  | 100% | 100% |  | very good herbicidal activity |  | 90% |  |  | 90% |  | 100% | 100% | 100% | 90% |  |  |  | 
3 | COc1ccc(-c2cc(C(F)F)no2)c(Oc2ccc(Cl)cn2)c1 [Example 1-39] | very good herbicidal activity | 90% | 90% | 100% | 100% | 100% | very good herbicidal activity | 100% | 100% | 90% | 100% | 100% |  | 100% | 100% | 100% |  | 90% | 100% | 100% | Post-emergence action against Poa annua (POAAN) (Poa annua (POAAN) [14]; 1280 g/ha): 100%; Post-emergence action against Amaranthus retroflexus (AMARE) ([15]; dosage 320 g/ha): 100%; Pre-emergence action against Poa annua (POAAN) (Poa annua (POAAN) [6]; dosage 320 g/ha): 100%; Post-emergence action against Echinochloa crus-galli (ECHCG) [16]: 90%
4 | FC(F)(F)c1ccc(-c2ccccc2Oc2ccc(Cl)cn2)nc1 [Example 1-67] | very good herbicidal activity | 100% |  | 100% | 100% | 100% | very good herbicidal activity |  | 100% | 100% | 100% | 100% | 90% | 100% | 100% | 100% | 90% | 100% | 100% | 100% | Post-emergence action against Alopecurus myosuroides (ALOMY) [17]: 90%; Post-emergence action against Abutilon theophrasti (ABUTH) ([2]; 320 g/ha): 90%; Post-emergence action against Poa annua (POAAN) (Poa annua (POAAN) [14]; 1280 g/ha): 100%
5 | Cc1ccc(-c2ccccc2Oc2ccc(Cl)cn2)nc1 [Example 1-80] | very good herbicidal activity | 100% | 90% | 100% | 100% | 90% | very good herbicidal activity | 100% | 100% | 100% |  |  |  |  | 100% | 100% |  | 100% |  | 100% | 
